Experimental data as given in paper PMC5054527, “Mechanism of high affinity inhibition of the human urate transporter URAT1” (Scientific Reports, 2016).
Where a chain is given by its changes, count along the chain named. Read-outs that look alike come from different tables or passages of the source.

Tests used:
Test in all cases: URAT1 uric acid transport activity assay
Assay type in all cases: cell-based
[1] = biological target: T1, r-N35S/Y365F rURAT1 double point mutant (Rattus norvegicus, UniProt Q3ZAV1, N35S/Y365F)
T1 construct: expressed in transfected cells; host or cells: HEK-293T
T1 sequence (Q3ZAV1 1-553 N35S/Y365F): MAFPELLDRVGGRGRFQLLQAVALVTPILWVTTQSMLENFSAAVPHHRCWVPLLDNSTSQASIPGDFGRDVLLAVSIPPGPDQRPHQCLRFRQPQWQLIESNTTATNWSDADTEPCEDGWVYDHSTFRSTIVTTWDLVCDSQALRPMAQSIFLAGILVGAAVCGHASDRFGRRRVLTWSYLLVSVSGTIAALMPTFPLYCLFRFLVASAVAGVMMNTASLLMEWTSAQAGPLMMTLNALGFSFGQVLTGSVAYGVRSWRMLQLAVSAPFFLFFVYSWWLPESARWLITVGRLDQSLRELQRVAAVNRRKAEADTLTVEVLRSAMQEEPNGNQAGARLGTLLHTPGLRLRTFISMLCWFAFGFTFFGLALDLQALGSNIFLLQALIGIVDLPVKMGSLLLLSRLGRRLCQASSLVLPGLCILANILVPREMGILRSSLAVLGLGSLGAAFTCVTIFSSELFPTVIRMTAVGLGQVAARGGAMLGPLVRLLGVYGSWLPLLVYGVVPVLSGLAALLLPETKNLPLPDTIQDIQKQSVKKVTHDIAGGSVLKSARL
Outline: (§1)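 Readout: 14C-uric acid uptake (100 μM, 10 min) in cells transiently transfected one day earlier with mutant rURAT1. Serially diluted inhibitors were added 5 min before substrate. Triplicate points, four-parameter logistic fit for IC50.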

[2] = biological target: T2, r-A21T rURAT1 point mutant (Rattus norvegicus, UniProt Q3ZAV1, A21T)
T2 construct: expressed in transfected cells; host or cells: HEK-293T
T2 sequence (Q3ZAV1 1-553 A21T): T1 sequence (Q3ZAV1 1-553 N35S/Y365F) with A21T, S35N, F365Y
Outline: as §1

[3] = biological target: T3, r-M354T rURAT1 point mutant (Rattus norvegicus, UniProt Q3ZAV1, M354T)
T3 construct: expressed in transfected cells; host or cells: HEK-293T
T3 sequence (Q3ZAV1 1-553 M354T): T1 sequence (Q3ZAV1 1-553 N35S/Y365F) with S35N, M354T, F365Y
Outline: as §1

[4] = r-N35S/Y365F, MES pH 5.5, 100 μM 14C-uric acid, read-out: IC50 (uric acid transport)

O=c1[nH]c(=O)c2[nH]c(=O)[nH]c2[nH]1 [uric acid]
fold increased affinity of r-N35S/Y365F compared to rURAT1 ([1]; from IC50 values): 5.4 fold
IC50 [1, 4]: 484 µM

CCc1oc2ccccc2c1C(=O)c1cc(Br)c(O)c(Br)c1 [benzbromarone]
IC50 [2]: 22 ± 3.6 µM
IC50 [3]: 18 ± 1.7 µM
IC50 [1]: 2.2 ± 0.29 µM

O=C(O)CSc1nnc(Br)n1-c1ccc(C2CC2)c2ccccc12 [lesinurad, 2-((5-bromo-4-(4-cyclopropylnaphthalen-1-yl)-4H-1,2,4-triazol-3-yl)thio)acetic acid]
IC50 ([2]; r-A21T, MES pH 5.5, 100 μM 14C-uric acid, read-out: IC50 (uric acid transport)): 71 ± 5.9 µM
IC50 ([3]; r-M354T, MES pH 5.5, 100 μM 14C-uric acid, read-out: IC50 (uric acid transport)): 56 ± 4.9 µM
IC50 [1, 4]: 1.6 ± 0.03 µM

O=C1C(CC[S+]([O-])c2ccccc2)C(=O)N(c2ccccc2)N1c1ccccc1 (centres unmarked) [sulfinpyrazone]
IC50 ([2]; r-A21T, HEPES pH 7.3, 100 μM 14C-uric acid, read-out: IC50 (uric acid transport)): 471 ± 81 µM
IC50 ([3]; r-M354T, HEPES pH 7.3, 100 μM 14C-uric acid, read-out: IC50 (uric acid transport)): 304 ± 38 µM
IC50 ([1]; r-N35S/Y365F, HEPES pH 7.3, 100 μM 14C-uric acid, read-out: IC50 (uric acid transport)): 142 ± 15 µM
